According to patent publication US8529874B2, “Peptide imaging agents” (GE Healthcare AS, priority 2007, dated 2013):
Bridge positions count the residues as written; N and C are the ends.

Columns and labels:
[1] = tested on: HCT-15 tumours; test: In vivo optical imaging of HCT-15 tumour slice against normal colon; parameters: species or system BALB c/A nude (Bom) mice
Source text: 54 Female BALB c/A nude (Bom) mice were used in the study. The use of the animals was approved by the local ethics committee. BALB c/A nude is an inbred immunocompromised mouse strain with a high take rate for human tumours as compared to other nude mice strains. The mice were 4 weeks old upon arrival and with a body weight of approx. 20 grams at the start of the study. The animals were housed in individually ventilated cages (IVC, Scanbur BK) with HEPA filtered air. The animals had ad libitum access to “Rat and Mouse nr. 3 Breeding” diet (Scanbur BK) and tap water acidified by addition of HCl to a molar concentration of 1 mM (pH 3.0).
The colon cancer cell HCT-15 is derived from human colon carcinomas and is reported to express c-Met according to Zeng et al [Clin. Exp. Metastasis, 21, 409-417. (2004)]. The cell line was proven to be tumorigenic when inoculated subcutaneously into nude mice [Flatmark et al, Eur. J. Cancer 40, 1593-1598 (2004)].
HCT-15 cells were grown and prepared for subcutaneous inoculation in RPMI (Sigma Cat# R0883) with 10% serum and penicillin/streptomycin. Stocks were made at passage number four (P4) and frozen down for storage in liquid nitrogen at 3×10^7 cells/vial in the culture media containing 5% DMSO. On the day of the transplantation, the cells were thawed quickly in a 37° C. water bath (approx. 2 min), washed and resuspended in PBS/2% serum (centrifugation at 1200 rpm for 10 min). Thorough mixing of cells in the vials was ensured every time cells were aspirated into the dosing syringe. Volumes of 0.1 ml of cell suspension were injected s.c. at the shoulder and at the back using a fine bore needle (25 G) while the animals were under light gas anaesthesia. The animals were then returned to their cages and the tumours were allowed to grow for 13-17 days. […]
Imaging was performed through a clinical laparoscope adapted to use a light source to excite the reporter and a filtering system to extract the fluorescence component. […] The images were visually scored using the standard scoring system employed for receiver operating characteristic analysis.

[2] = biological target: T1, mouse c-Met/Fc chimera (Mus musculus, UniProt P16056); test: In vitro fluorescence polarisation assay, binding to mouse c-Met; conditions: dye-labelled peptide 20 nM, c-Met/Fc 0-150 nM (tested range)
T1 construct: purchased R&D Systems
T1 sequence (P16056 with tags, fused parts or gaps limits assumed): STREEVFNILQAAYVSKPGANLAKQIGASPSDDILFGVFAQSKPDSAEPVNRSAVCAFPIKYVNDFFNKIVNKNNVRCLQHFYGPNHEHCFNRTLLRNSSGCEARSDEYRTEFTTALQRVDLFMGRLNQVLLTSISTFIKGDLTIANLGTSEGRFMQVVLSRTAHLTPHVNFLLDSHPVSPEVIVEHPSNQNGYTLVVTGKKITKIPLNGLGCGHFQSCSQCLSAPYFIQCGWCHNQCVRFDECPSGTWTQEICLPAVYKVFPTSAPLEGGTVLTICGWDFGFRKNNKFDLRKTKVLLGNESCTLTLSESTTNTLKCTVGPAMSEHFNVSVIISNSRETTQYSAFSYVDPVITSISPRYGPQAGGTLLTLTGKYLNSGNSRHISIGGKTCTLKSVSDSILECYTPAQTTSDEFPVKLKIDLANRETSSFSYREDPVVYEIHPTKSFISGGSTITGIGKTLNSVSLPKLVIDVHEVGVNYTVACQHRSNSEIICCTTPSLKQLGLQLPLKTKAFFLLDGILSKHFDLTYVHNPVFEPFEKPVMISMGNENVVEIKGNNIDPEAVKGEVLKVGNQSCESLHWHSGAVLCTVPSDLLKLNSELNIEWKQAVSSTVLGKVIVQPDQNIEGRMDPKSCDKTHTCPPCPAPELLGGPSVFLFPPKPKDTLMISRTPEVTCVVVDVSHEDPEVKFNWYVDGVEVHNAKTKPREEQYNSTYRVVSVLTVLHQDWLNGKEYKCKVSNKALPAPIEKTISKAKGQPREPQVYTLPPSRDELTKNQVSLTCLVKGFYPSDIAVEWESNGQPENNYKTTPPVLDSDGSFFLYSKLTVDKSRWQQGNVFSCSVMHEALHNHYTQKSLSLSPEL
Protocol: The principle of the fluorescence polarisation method can briefly be described as follows:
Monochromatic light passes through a horizontal polarizing filter and excites fluorescent molecules in the sample. Only those molecules that oriented properly in the vertically polarized plane adsorb light, become excited, and subsequently emit light. The emitted light is measured in both horizontal and vertical planes. The anistropy value (A), is the ratio between the light intensities following the equation
The fluorescence anistropy measurements were performed in 384-well microplates in a volume of 10 μL in binding buffer (PBS, 0.01% Tween-20, pH 7.5) using a Tecan Safire fluorescence polarisation plate reader (Tecan, US) at ex646/em678 nm. The concentration of dye-labelled peptide was held constant (20 nM) and the concentrations of the human or mouse c-Met/Fc chimera (R&D Systems) or Semaphorin 6A (R&D Systems) were varied from 0-150 nM. Binding mixtures were equilibrated in the microplate for 10 min at 30° C. The observed change in anistropy was fit to the equation
[formula] where robs is the observed anistropy, rfree is the anistropy of the free peptide, rbound is the anistropy of the bound peptide, KD is the dissociation constant, cMet is the total c-Met concentration, and P is the total dye-labelled peptide concentration. […]

Substance: Ac-TGECTCPYWEFRPCECGSYSGAGGGK(ε-Cy5**)-NH2 (Ac-TGECTCPYWEFRPCECGSYSGAGGGK-NH2; disulfide 6-14; disulfide 4-16 (inferred); not fully specified (residue 26); printed as Ac-TGECTCPYWEFRPCECGSYSGAGGGK(ε-Cy5**)-NH2) [Compound 7, negative control; scrambled control peptide with the same dye as Compound 5]
- visual identification of tumour against background ([1]; 1 nmol per animal i.v., HCT-15 tumour slice vs normal colon): nothing was discernible against background
- tumour to normal ratio ([1]; 1 nmol per animal i.v., HCT-15 tumour slice vs normal colon, ex vivo, 635 nm excitation): 1.04
- tumour: background ratios (summary in words) ([1]; animal model of cancer, Example 7): did not discriminate between tumour and background

Substance: Ac-Ala-Gly-Ser-Cys-Tyr-Cys-Ser-Gly-Pro-Pro-Arg-Phe-Glu-Cys-Trp-Cys-Tyr-Glu-Thr-Glu-Gly-Thr-Gly-Gly-Gly-Lys(Cy5)-NH2 (Ac-AGSCYCSGPPRFECWCYETEGTGGGK(Cy5)-NH2; also: two disulfides, pairing not given here) [Compound 3]
- binding to mouse c-Met (in words) [2]: no binding
